Assay results as given in US12071407B1, “6-(4-hydroxyphenyl)-2-(2-ethoxyethoxy)-4-(4-methoxyphenyl)nicotinonitrile as an antimicrobial compound” (KING FAISAL UNIVERSITY, priority 2023, dated 2024).

Columns and labels:
Staphylococcus aureus = experiment: Antimicrobial screening by agar dilution; assay type: cell-based; details: after 10, 20, 40 and 60 minutes at all dilutions 1:100, 1:200, 1:400, 1:800
Method: (§1) The antibacterial properties of the synthesized compound 6-(4-hydroxyphenyl)-2-(2-ethoxyethoxy)-4-(4-methoxyphenyl)nicotinonitrile were studied by the method of agar dilution. Test solutions of each compound was prepared in concentration of 1% using dimethylformamide as a solvent then they are diluted in physiological solution to obtain the final experimental dilutions 1:100, 1:200, 1:400, 1:800. The effects of these substances are compared with furacillin in a controllable study. The testing microbes used were gram positive bacteria Staphylococcus aureus, gram negative bacteria Pseudomonas aeruginosa and Escherichia coli and Candida albicans fungus. The experiments used for this survey were meat-pentonlu agar (EPA) for cultivation of bacteria and Saburo environment for the fungus. Each experiment used 1 mL of test solution on each plate […]. Two drops of emulsified with microbes feel were added. All experimental samples were taken from the agar after 10, 20, 40, 60 minutes in the environment on the basis of Patrk planted. The bacteria were cultivated at a temperature of 37° C. for 1 day and the mushroom was kept in a thermostat for […] at a temperature of 28° C. Then results were checked.

Escherichia coli = experiment: Antimicrobial screening by agar dilution; assay type: cell-based; details: after 10, 20, 40 and 60 minutes at all dilutions 1:100, 1:200, 1:400, 1:800
Method: as §1

Candida albicans = experiment: Antimicrobial screening by agar dilution; assay type: cell-based; details: after 10, 20, 40 and 60 minutes at all dilutions 1:100, 1:200, 1:400, 1:800
Method: as §1

Pseudomonas aeruginosa = experiment: Antimicrobial screening by agar dilution; assay type: cell-based; details: after 10, 20, 40 and 60 minutes at all dilutions 1:100, 1:200, 1:400, 1:800
Method: as §1

Compound: CCOCCOc1nc(-c2ccc(O)cc2)cc(-c2ccc(OC)cc2)c1C#N [6-(4-hydroxyphenyl)-2-(2-ethoxyethoxy)-4-(4-methoxyphenyl)nicotinonitrile]
- melting point: 209 to 211 °C
- inhibition activity (summary in words) (Staphylococcus aureus): highest inhibition activity
- inhibition activity (summary in words) (Escherichia coli): highest inhibition activity
- inhibition activity (summary in words) (Candida albicans): highest inhibition activity
- inhibition activity (summary in words) (Pseudomonas aeruginosa): highest inhibition activity
